Source: patent publication US5580956A, “Phospholipase C-inhibiting peptides” (priority 1992, dated 1996)
Peptide text beside a SMILES is read from it. * marks the point of attachment. Benzoyl(2,3-diOH) = O=C(c1cccc(O)c1O)*; Cyclopentylacetyl = O=C(CC1CCCC1)*; Nonanoyl = CCCCCCCCC(=O)*; Octanoyl = CCCCCCCC(=O)*; X1 = O=C(c1ccc(O)cc1O)*; X2 = O=C(c1ccc(=O)oc1)*; Butyryl = CCCC(=O)*

What was measured:
KMS-4 cells = test: Cell proliferation-inhibiting activity (BrdU incorporation, Amersham Cell Proliferation Detection Kit); format: cell-based; conditions: 17 hours with peptide, BrdU-stained cells
Description: The following procedure was carried out with an Amersham Cell Proliferation Detection Kit. First, cells [KMS-4; M. Nanba et al., International Journal of Cancer, 32, 697 (1983)] were suspended in a DMEM culture medium (product of Nissui Seiyaku) containing 10% fetal calf serum to a concentration of 1-2×10^4 cells/ml, and 1 ml of the above-mentioned cell suspension was put into each well of a 24-well plate (product of Corning Co.). The cells were cultured for 2 days in a CO2 incubator (37° C., 5% CO2). Next, the culture medium was exchanged with a DMEM medium containing 10% fetal calf serum, and then the test peptide was added thereto and culturing was carried out for 17 hours. The culture medium was again exchanged with a serum-free DMEM medium, 0.5 ml of a solution of the reagents labelled 5-bromo-2'-deoxyuridine (BrdU) and 5-fluoro-2'-deoxyuridine (FdU) [10:1] diluted 1000-fold with the same medium was added to each well, and cultured for 2 hours. The culture medium was removed, and the cells were immobilized with an acetic acid/ethanol solution. The immobilized cells were stained according to the method for the Amersham Cell Proliferation Kit, and then further stained with a 1% Giemsa solution (product of Merck Co.). The number of cells incorporating BrdU and the total cell count within 1 field of vision of the microscope (approximately 200 cells) were determined, and the proportion (%) of stained cells per field of vision was calculated. Furthermore, the same procedure was repeated 10 times, and the average value thereof was defined as the cell proliferation activity (%). The cell proliferation-inhibiting activity was calculated in the following manner. The proliferation activity without addition of peptide was defined as "A", the proliferation activity with addition of the test peptide was defined as "B", and the cell proliferation inhibition rate (X) was determined according to the following equation. X (%)=[…]

PLC-γ1 = biological target: T1, PLC-γ1 (Bos taurus, UniProt P08487); test: PLC-inhibiting activity (release of [3H]inositol phosphate from [3H]PIP2); format: biochemical, bovine; conditions: PI-PLC-γ1, 37° C., 10 minutes
T1 construct: A sample (PLC-γ1) was prepared from bovine thymus according to the method of Y. Homma et al; from tissue; host or cells: bovine thymus
T1 sequence (P08487 1-1291): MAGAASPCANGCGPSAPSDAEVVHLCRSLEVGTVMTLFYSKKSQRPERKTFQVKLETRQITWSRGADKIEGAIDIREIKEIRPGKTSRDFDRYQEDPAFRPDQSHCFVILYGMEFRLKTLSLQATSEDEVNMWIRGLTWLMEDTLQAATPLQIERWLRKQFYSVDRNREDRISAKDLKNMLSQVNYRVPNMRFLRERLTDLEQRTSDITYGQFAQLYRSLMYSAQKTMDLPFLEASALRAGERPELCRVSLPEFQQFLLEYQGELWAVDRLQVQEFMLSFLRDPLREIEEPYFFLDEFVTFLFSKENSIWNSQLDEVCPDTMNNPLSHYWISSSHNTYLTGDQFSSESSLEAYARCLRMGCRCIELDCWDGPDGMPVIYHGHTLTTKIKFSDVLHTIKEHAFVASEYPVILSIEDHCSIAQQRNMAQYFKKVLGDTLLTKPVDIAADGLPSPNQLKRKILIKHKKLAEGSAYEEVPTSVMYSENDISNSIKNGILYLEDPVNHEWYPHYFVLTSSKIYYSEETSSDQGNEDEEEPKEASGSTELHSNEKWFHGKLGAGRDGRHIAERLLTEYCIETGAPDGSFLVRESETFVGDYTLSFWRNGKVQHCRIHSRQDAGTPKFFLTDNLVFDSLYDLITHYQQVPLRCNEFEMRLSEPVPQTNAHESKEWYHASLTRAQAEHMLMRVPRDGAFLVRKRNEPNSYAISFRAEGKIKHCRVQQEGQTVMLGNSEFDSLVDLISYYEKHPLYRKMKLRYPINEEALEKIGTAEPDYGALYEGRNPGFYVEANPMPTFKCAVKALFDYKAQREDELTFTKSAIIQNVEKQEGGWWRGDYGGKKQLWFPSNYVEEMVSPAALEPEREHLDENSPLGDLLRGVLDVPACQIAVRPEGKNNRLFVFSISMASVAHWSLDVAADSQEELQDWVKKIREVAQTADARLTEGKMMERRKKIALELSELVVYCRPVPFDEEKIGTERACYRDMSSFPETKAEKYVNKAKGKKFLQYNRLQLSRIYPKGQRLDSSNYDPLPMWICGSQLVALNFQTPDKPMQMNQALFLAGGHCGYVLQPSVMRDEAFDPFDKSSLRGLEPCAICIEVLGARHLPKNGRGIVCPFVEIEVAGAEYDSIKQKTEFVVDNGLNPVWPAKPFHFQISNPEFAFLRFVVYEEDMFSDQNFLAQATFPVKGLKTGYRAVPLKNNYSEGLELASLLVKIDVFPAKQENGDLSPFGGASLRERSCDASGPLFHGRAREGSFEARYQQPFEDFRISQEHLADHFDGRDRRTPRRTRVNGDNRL
Description: A sample (PLC-γ1) was prepared from bovine thymus according to the method of Y. Homma et al. described in Biochemical Journal [(Biochem. J.), 269, 13 (1990)]. A solution having the composition listed in Table 1 below was prepared in advance on the ice and the reaction was begun with heating to 37° C. After incubation for 10 minutes, 2 ml of a solution mixture of chloroform/methanol (2:[…]) was added thereto to stop the reaction. The resulting inositol phosphate was extracted with 0.5 ml of 1N hydrochloric acid. Two-phase distribution was carried out by centrifugation (2000×g, 3 minutes), and the amount of ^3 H contained in 0.7 ml of the supernatant was measured with scintillation counter. […] The obtained value of specific radioactivity was defined as "A", the value of specific radioactivity obtained when an equivalent amount of water was added instead of the aqueous solution of the test peptide was defined as "B", the value of specific radioactivity obtained when an equivalent amount of water was added instead of the sample and the aqueous solution of the test peptide was defined as "C", and the inhibition rate (X) was determined according to the following equation. X(%)=[…]

[1] = Concentration 120 μM (aqueous solution of test peptide), read-out: Inhibition rate (%)

For CCCCCCCC(=O)N[C@@H](CC(C)C)C(=O)N[C@@H](Cc1ccc(O)cc1)C(=O)N[C@@H](CCCNC(=N)N)C(=O)N[C@@H](CCCCN)C(=O)N[C@@H](CCSC)C(=O)N[C@@H](CCCNC(=N)N)C(=O)N[C@@H](CC(C)C)C(=O)N[C@@H](CCCNC(=N)N)C(=O)N[C@@H](Cc1ccc(O)cc1)C(=O)N1CCC[C@H]1C(=O)N[C@H](C(N)=O)C(C)C [(I-21), CH3 (CH2)6 CO-Leu-Tyr-Arg-Lys-Met-Arg-Leu-Arg-Tyr-Pro-Val-NH2] (Octanoyl-LYRKMRLRYPV-NH2), the “Cell proliferation inhibition rate (%)” value (KMS-4 cells; Concentration 31 μM) was 56% and the inhibition at 120 µM (stock) (PLC-γ1; [1]) was 86%.

With CSCC[C@H](NC(=O)[C@H](CCCCN)NC(=O)[C@H](CCCNC(=N)N)NC(=O)[C@H](Cc1ccc(O)cc1)NC(=O)[C@H](CC(C)C)NC(=O)c1ccc(O)cc1O)C(=O)N[C@@H](CCCNC(=N)N)C(=O)N[C@@H](CC(C)C)C(=O)N[C@@H](CCCNC(=N)N)C(=O)N[C@@H](Cc1ccc(O)cc1)C(=O)N1CCC[C@H]1C(=O)N[C@H](C(N)=O)C(C)C [(I-14), (HO)2 C6 H3 CO-Leu-Tyr-Arg-Lys-Met-Arg-Leu-Arg-Tyr-Pro-Val-NH2] (X1-LYRKMRLRYPV-NH2) the “Cell proliferation inhibition rate (%)” value (KMS-4 cells; Concentration 31 μM) was 59% and the inhibition at 120 µM (stock) (PLC-γ1; [1]) was 45%.

With CCCCCCCCC(=O)N[C@@H](CC(C)C)C(=O)N[C@@H](Cc1ccc(O)cc1)C(=O)N[C@@H](CCCNC(=N)N)C(=O)N[C@@H](CCCCN)C(=O)N[C@@H](CCSC)C(=O)N[C@@H](CCCNC(=N)N)C(=O)N[C@@H](CC(C)C)C(=O)N[C@@H](CCCNC(=N)N)C(=O)N[C@@H](Cc1ccc(O)cc1)C(=O)N1CCC[C@H]1C(=O)N[C@H](C(N)=O)C(C)C [(I-28), CH3 (CH2)7 CO-Leu-Tyr-Arg-Lys-Met-Arg-Leu-Arg-Tyr-Pro-Val-NH2] (Nonanoyl-LYRKMRLRYPV-NH2) the “Cell proliferation inhibition rate (%)” value (KMS-4 cells; Concentration 31 μM) was 22% and the inhibition at 120 µM (stock) (PLC-γ1; [1]) was 78%.

For CSCC[C@H](NC(=O)[C@H](CCCCN)NC(=O)[C@H](CCCNC(=N)N)NC(=O)[C@H](Cc1ccc(O)cc1)NC(=O)[C@H](CC(C)C)NC(=O)c1ccc(=O)oc1)C(=O)N[C@@H](CCCNC(=N)N)C(=O)N[C@@H](CC(C)C)C(=O)N[C@@H](CCCNC(=N)N)C(=O)N[C@@H](Cc1ccc(O)cc1)C(=O)N1CCC[C@H]1C(=O)N[C@H](C(N)=O)C(C)C [(I-12), C5 H3 O2 CO-Leu-Tyr-Arg-Lys-Met-Arg-Leu-Arg-Tyr-Pro-Val-NH2] (X2-LYRKMRLRYPV-NH2), the “Cell proliferation inhibition rate (%)” value (KMS-4 cells; Concentration 31 μM) was 69% and the inhibition at 120 µM (stock) (PLC-γ1; [1]) was 40%.

In the case of CSCC[C@H](NC(=O)[C@H](CCCCN)NC(=O)[C@H](CCCNC(=N)N)NC(=O)[C@H](Cc1ccc(O)cc1)NC(=O)[C@H](CC(C)C)NC(=O)c1cccc(O)c1O)C(=O)N[C@@H](CCCNC(=N)N)C(=O)N[C@@H](CC(C)C)C(=O)N[C@@H](CCCNC(=N)N)C(=O)N[C@@H](Cc1ccc(O)cc1)C(=O)N1CCC[C@H]1C(=O)N[C@H](C(N)=O)C(C)C [(I-13), (HO)2 C6 H3 CO-Leu-Tyr-Arg-Lys-Met-Arg-Leu-Arg-Tyr-Pro-Val-NH2] ({Benzoyl(2,3-diOH)}-LYRKMRLRYPV-NH2), the “Cell proliferation inhibition rate (%)” value (KMS-4 cells; Concentration 31 μM) is reported as 69% and the inhibition at 610 µM (stock) (PLC-γ1; Concentration 610 μM (aqueous solution of test peptide), read-out: Inhibition rate (%)) is reported as 89%.

“H-YRKMRLRY-OH [Compound (I-7), H-Tyr-Arg-Lys-Met-Arg-Leu-Arg-Tyr-OH]” gave an inhibition at 120 µM (stock) (PLC-γ1; [1]) of 70%.

“H-SLVELVSYYEKHALYRKMRLRYPV-OH [Compound (I-1)]” gave an inhibition at 15 µM (stock) (PLC-γ1; Concentration 15 μM (aqueous solution of test peptide), read-out: Inhibition rate (%)) of 55% and an inhibition at 55 µM (stock) (PLC-γ1; Concentration 55 μM (aqueous solution of test peptide), read-out: Inhibition rate (%)) of 88%.

CSCC[C@H](NC(=O)[C@H](CCCCN)NC(=O)[C@H](CCCNC(=N)N)NC(=O)[C@H](Cc1ccc(O)cc1)NC(=O)[C@H](CC(C)C)NC(=O)CC1CCCC1)C(=O)N[C@@H](CCCNC(=N)N)C(=O)N[C@@H](CC(C)C)C(=O)N[C@@H](CCCNC(=N)N)C(=O)N[C@@H](Cc1ccc(O)cc1)C(=O)N1CCC[C@H]1C(=O)N[C@H](C(N)=O)C(C)C [(I-17), C5 H9 CH2 CO-Leu-Tyr-Arg-Lys-Met-Arg-Leu-Arg-Tyr-Pro-Val-NH2] (Cyclopentylacetyl-LYRKMRLRYPV-NH2) was tested, and the “Cell proliferation inhibition rate (%)” value (KMS-4 cells; Concentration 31 μM) was 72% and the inhibition at 120 µM (stock) (PLC-γ1; [1]) was 53%.

“n-C3 H7 CO-Leu-Tyr-Arg-Lys-Met-Arg-Leu-Arg-Tyr-Pro-Val-NH2 (Butyryl-LYRKMRLRYPV-NH2; SMILES CCCC(=O)N[C@@H](CC(C)C)C(=O)N[C@@H](Cc1ccc(O)cc1)C(=O)N[C@@H](CCCNC(=N)N)C(=O)N[C@@H](CCCCN)C(=O)N[C@@H](CCSC)C(=O)N[C@@H](CCCNC(=N)N)C(=O)N[C@@H](CC(C)C)C(=O)N[C@@H](CCCNC(=N)N)C(=O)N[C@@H](Cc1ccc(O)cc1)C(=O)N1CCC[C@H]1C(=O)N[C@H](C(N)=O)C(C)C) [Compound (I-11)]” was tested, and the “Cell proliferation inhibition rate (%)” value (KMS-4 cells; Concentration 1 μM) was 86%, the “Cell proliferation inhibition rate (%)” value (KMS-4 cells; Concentration 32 μM) was 84% and the “Inhibition rate (%)” value (PLC-γ1; Concentration 130 μM (aqueous solution of test peptide)) was 31%.

For “H-Leu-Tyr-Arg-Lys-Met-Arg-Leu-Arg-Tyr-Pro-Val-OH (H-LYRKMRLRYPV-OH) [Compound (I-5)]”, the “Inhibition rate (%)” value (PLC-γ1; Concentration 125 μM (aqueous solution of test peptide)) was 70%.

In the case of “H-Glu-Lys-His-Ala-Leu-Tyr-Arg-Lys-Met -Arg-Leu-Arg-Tyr-Pro-Val-OH (H-EKHALYRKMRLRYPV-OH) [Compound (I-4)]”, the “Inhibition rate (%)” value (PLC-γ1; Concentration 120 μM (aqueous solution of test peptide)) is reported as 73%.

In the case of “H-Ser-Leu-Val-Glu-Leu-Val-Ser-Tyr-Tyr-Glu-Lys-His-Ala-OH (H-SLVELVSYYEKHA-OH) [Compound (I-6)]”, the “Inhibition rate (%)” value (PLC-γ1; Concentration 105 μM (aqueous solution of test peptide)) is reported as 70%.
